The assay concerns the target T1, ΔF508-CFTR (Homo sapiens, UniProt P13569, DEL508-508).
T1 construct: expressed in transfected cells
The assay can be described thus: Membrane potential optical assay (FRET voltage-sensor dyes, VIPR), identification of potentiator compounds. The format is cell-based. The following applies: Table 3; assay not given; read-out: % Activity (% Efficacy, relative efficacy). Summed up:
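Potentiator screen measured membrane potential via FRET between CC2-DMPE donor and DiSBAC2(3), read on VIPR II. Compound went in with the first addition of chloride-free gluconate bath; cells were ΔF508-CFTR-expressing NIH3T3 mouse fibroblasts, temperature-corrected at 27 °C for 24 h.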

T1 sequence (P13569 with tags, fused parts or gaps DEL508-508): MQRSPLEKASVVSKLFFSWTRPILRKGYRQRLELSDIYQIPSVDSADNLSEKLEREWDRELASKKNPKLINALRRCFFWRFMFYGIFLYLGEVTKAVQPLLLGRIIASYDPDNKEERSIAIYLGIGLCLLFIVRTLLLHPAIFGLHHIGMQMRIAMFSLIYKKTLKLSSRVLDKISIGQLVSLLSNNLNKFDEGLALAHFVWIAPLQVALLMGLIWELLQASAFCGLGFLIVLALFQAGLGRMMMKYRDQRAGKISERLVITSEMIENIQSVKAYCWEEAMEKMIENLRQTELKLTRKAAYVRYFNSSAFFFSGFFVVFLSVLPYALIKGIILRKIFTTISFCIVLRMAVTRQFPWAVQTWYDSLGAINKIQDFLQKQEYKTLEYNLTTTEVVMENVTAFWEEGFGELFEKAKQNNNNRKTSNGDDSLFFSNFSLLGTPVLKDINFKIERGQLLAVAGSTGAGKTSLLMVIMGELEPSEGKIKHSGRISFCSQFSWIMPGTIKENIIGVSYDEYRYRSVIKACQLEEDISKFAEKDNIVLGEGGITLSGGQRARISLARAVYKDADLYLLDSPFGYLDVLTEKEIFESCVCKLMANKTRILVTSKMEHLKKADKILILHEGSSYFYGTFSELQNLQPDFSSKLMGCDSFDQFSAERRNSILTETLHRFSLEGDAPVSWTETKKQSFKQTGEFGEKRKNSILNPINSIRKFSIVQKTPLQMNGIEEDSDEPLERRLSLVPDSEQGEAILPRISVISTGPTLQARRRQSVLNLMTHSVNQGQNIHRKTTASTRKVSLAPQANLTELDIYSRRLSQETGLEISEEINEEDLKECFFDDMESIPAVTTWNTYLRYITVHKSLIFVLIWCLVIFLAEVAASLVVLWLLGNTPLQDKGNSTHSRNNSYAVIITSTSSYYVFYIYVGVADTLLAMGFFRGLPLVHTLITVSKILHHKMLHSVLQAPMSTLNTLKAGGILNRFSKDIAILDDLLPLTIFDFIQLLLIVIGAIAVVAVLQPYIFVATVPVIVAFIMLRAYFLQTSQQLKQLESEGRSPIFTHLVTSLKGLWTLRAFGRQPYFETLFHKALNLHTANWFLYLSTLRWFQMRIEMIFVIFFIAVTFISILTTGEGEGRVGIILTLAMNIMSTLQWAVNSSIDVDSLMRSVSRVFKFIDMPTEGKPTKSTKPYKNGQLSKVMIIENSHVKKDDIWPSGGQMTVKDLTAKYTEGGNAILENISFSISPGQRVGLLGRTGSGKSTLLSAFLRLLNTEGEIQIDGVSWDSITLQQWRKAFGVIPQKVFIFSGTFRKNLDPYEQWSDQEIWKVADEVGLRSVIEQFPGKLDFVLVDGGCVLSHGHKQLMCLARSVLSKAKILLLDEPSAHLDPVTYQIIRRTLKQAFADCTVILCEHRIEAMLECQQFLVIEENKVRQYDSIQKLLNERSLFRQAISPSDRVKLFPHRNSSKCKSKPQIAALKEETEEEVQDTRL

Consider `Cc1cc(C(C)(C)C)c(O)cc1NC(=O)c1c[nH]c2ccccc2c1=O` [Compound 518, N-(5-hydroxy-2-methyl-4-tert-butyl-phenyl)-4-oxo-1H-quinoline-3-carboxamide], for which the Emax lay within 25 to 100%. The same measure for `CC(C)(C)c1cc(F)c(NC(=O)c2c[nH]c3c(C#N)cccc3c2=O)cc1O` [Compound 519, 8-cyano-N-(2-fluoro-5-hydroxy-4-tert-butyl-phenyl)-4-oxo-1H-quinoline-3-carboxamide]: 25 to 100%; for `CC(C)(C)c1cc(C(C)(C)C)c(NC(=O)c2c[nH]c3cccc(C(F)(F)F)c3c2=O)cc1O` [Compound 520, N-(5-hydroxy-2,4-ditert-butyl-phenyl)-4-oxo-5-(trifluoromethyl)-1H-quinoline-3-carboxamide]: 25 to 100%; for `CC1(c2ccc(NC(=O)c3c[nH]c4ccc(F)cc4c3=O)cc2)COC1` [Compound 521, 6-fluoro-N-[4-(3-methyloxetan-3-yl)phenyl]-4-oxo-1H-quinoline-3-carboxamide]: 25 to 100%. For `O=C(Nc1ccc(C2CCCCC2)c(O)c1)c1c[nH]c2cccc(O)c2c1=O` [Compound 522, N-(4-cyclohexyl-3-hydroxy-phenyl)-5-hydroxy-4-oxo-1H-quinoline-3-carboxamide], the Emax was 25 to 100%.

As to `CC1(c2ccc(NC(=O)c3c[nH]c4ccccc4c3=O)cc2)COC1` [Compound 523, N-[4-(3-methyloxetan-3-yl)phenyl]-4-oxo-1H-quinoline-3-carboxamide], the Emax lay in the range of 25 to 100%.

For the molecule `CCOc1ccc2[nH]cc(C(=O)Nc3cc(O)c(C(C)(C)C)cc3C(C)(C)C)c(=O)c2c1` [Compound 524, 6-ethoxy-N-(5-hydroxy-2,4-ditert-butyl-phenyl)-4-oxo-1H-quinoline-3-carboxamide], the Emax fell in the range of 25 to 100%. With `CC(C)(C)c1cc(C(C)(C)C)c(NC(=O)c2c[nH]c3ccc(C#N)cc3c2=O)cc1O` [Compound 525, 6-cyano-N-(5-hydroxy-2,4-ditert-butyl-phenyl)-4-oxo-1H-quinoline-3-carboxamide], the Emax is less than 25%.

With `CCOc1cccc2c(=O)c(C(=O)Nc3cc(O)c(C(C)(C)C)cc3F)c[nH]c12` [Compound 526, 8-ethoxy-N-(2-fluoro-5-hydroxy-4-tert-butyl-phenyl)-4-oxo-1H-quinoline-3-carboxamide], the Emax is less than 25%. Turning to `CC(C)(C)c1ccc(NC(=O)c2c[nH]c3ccc(F)cc3c2=O)cc1F` [Compound 527, 6-fluoro-N-(3-fluoro-4-tert-butyl-phenyl)-4-oxo-1H-quinoline-3-carboxamide], the Emax lay within 25 to 100%.

Consider `Cc1cccc2[nH]cc(C(=O)Nc3ccc(N4CCC(F)(F)C4)cc3C(F)(F)F)c(=O)c12` [Compound 528, N-[4-(3,3-difluoropyrrolidin-1-yl)-2-(trifluoromethyl)phenyl]-5-methyl-4-oxo-1H-quinoline-3-carboxamide], for which the Emax lay in the range of 25 to 100%. Next, `CC1(c2ccc(NC(=O)c3c[nH]c4cccc(O)c4c3=O)cc2)COC1` [Compound 529, 5-hydroxy-N-[4-(3-methyloxetan-3-yl)phenyl]-4-oxo-1H-quinoline-3-carboxamide]: 25 to 100%; `COC(=O)[C@@H]1[C@@H](C)CCN1c1ccc(NC(=O)c2c[nH]c3ccccc3c2=O)c(C(F)(F)F)c1` [Compound 530, (2S,3S)-methyl 3-methyl-1-(4-(4-oxo-1,4-dihydroquinoline-3-carboxamido)-3-(trifluoromethyl)phenyl)pyrrolidine-2-carboxylate]: 25 to 100%. Regarding `COC(=O)[C@@H]1[C@H]2C[C@H]2CN1c1ccc(NC(=O)c2c[nH]c3ccccc3c2=O)c(C(F)(F)F)c1` [Compound 531, (1S,2S,5R)-methyl 3-(4-(4-oxo-1,4-dihydroquinoline-3-carboxamido)-3-(trifluoromethyl)phenyl)-3-azabicyclo[3.1.0]hexane-2-carboxylate], the Emax lay in the range of 25 to 100%.

`O=C(Nc1ccc(C(F)(F)F)cc1Cl)c1c[nH]c2ccccc2c1=O` [Compound 532, N-[2-chloro-4-(trifluoromethyl)phenyl]-4-oxo-1H-quinoline-3-carboxamide]: the Emax is 25 to 100%.

With `COc1ccc2[nH]cc(C(=O)Nc3cc4[nH]ccc4cc3C(C)(C)C)c(=O)c2c1` [Compound 533, 6-methoxy-4-oxo-N-(5-tert-butyl-1H-indol-6-yl)-1H-quinoline-3-carboxamide], the Emax is greater than 100%.

For the molecule `CN(C)[C@@H]1CCN(c2ccc(NC(=O)c3c[nH]c4ccccc4c3=O)c(C(F)(F)F)c2)C1` [Compound 534, (R)-N-(4-(3-(dimethylamino)pyrrolidin-1-yl)-2-(trifluoromethyl)phenyl)-4-oxo-1,4-dihydroquinoline-3-carboxamide], the Emax fell in the range of 25 to 100%. Next, `CC(C)(C)c1c[nH]c2cc(NC(=O)c3c[nH]c4cccc(O)c4c3=O)ccc12` [Compound 535, 5-hydroxy-4-oxo-N-(3-tert-butyl-1H-indol-6-yl)-1H-quinoline-3-carboxamide]: 25 to 100%; `CC1(C)CCN(c2ccc(NC(=O)c3c[nH]c4ccccc4c3=O)c(C(F)(F)F)c2)C1` [Compound 536, N-[4-(3,3-dimethylpyrrolidin-1-yl)-2-(trifluoromethyl)phenyl]-4-oxo-1H-quinoline-3-carboxamide]: 25 to 100%; `O=C(Nc1ccc2cc(C(F)(F)F)[nH]c2c1)c1c[nH]c2ccccc2c1=O` [Compound 537, 4-oxo-N-[2-(trifluoromethyl)-1H-indol-6-yl]-1H-quinoline-3-carboxamide]: 25 to 100%. Next, `Cc1cc(OC(F)(F)F)ccc1NC(=O)c1c[nH]c2ccccc2c1=O` [Compound 538, N-[2-methyl-4-(trifluoromethoxy)phenyl]-4-oxo-1H-quinoline-3-carboxamide]: 25 to 100%; `Cc1cccc2[nH]cc(C(=O)Nc3ccc(N4[C@H](C)CC[C@H]4C)cc3C(F)(F)F)c(=O)c12` [Compound 539, N-(4-((2R,5R)-2,5-dimethylpyrrolidin-1-yl)-2-(trifluoromethyl)phenyl)-5-methyl-4-oxo-1,4-dihydroquinoline-3-carboxamide]: 25 to 100%.

With `CC(C)(C)OC(=O)[C@H]1CCCN1c1ccc(NC(=O)c2c[nH]c3ccccc3c2=O)c(C(F)(F)F)c1` [Compound 540, (R)-tert-butyl 1-(4-(4-oxo-1,4-dihydroquinoline-3-carboxamido)-3-(trifluoromethyl)phenyl)pyrrolidine-2-carboxylate], the Emax was greater than 100%. Next, `Cc1cccc2[nH]cc(C(=O)Nc3ccc(N4CC[C@@H](F)C4)cc3C(F)(F)F)c(=O)c12` [Compound 541, (R)-N-(4-(3-fluoropyrrolidin-1-yl)-2-(trifluoromethyl)phenyl)-5-methyl-4-oxo-1,4-dihydroquinoline-3-carboxamide]: 25 to 100%; `CNc1cccc2[nH]cc(C(=O)Nc3cc(O)c(C(C)(C)C)cc3C(C)(C)C)c(=O)c12` [Compound 542, N-(5-hydroxy-2,4-ditert-butyl-phenyl)-5-methylamino-4-oxo-1H-quinoline-3-carboxamide]: greater than 100%; `CN(C)c1ccc2[nH]cc(C(=O)Nc3cc(O)c(C(C)(C)C)cc3C(C)(C)C)c(=O)c2c1` [Compound 544, 6-dimethylamino-N-(5-hydroxy-2,4-ditert-butyl-phenyl)-4-oxo-1H-quinoline-3-carboxamide]: 25 to 100%.

The values above are taken from patent US8802700B2 (Vertex Pharmaceuticals Incorporated, priority 2010, dated 2014).
